How the values were obtained:
Cox2 = Cox2 protein level by Western blot in TNFα-induced HaCaT cells; format: cell-based, human; details: TNFα 20 nM, peptide at 5 μM and 50 μM, 24 hours, compared to group not treated with TNFα
Description: In order to confirm the anti-inflammatory effect of treatment with the peptides of the present invention having the amino acid sequence of SEQ ID NO: 1, inflammation was induced in HaCaT cells, which are human keratinocytes, and the expression level of Cox2 protein was confirmed. In order to induce inflammation, the cells were treated with TNFα, which is an inflammation-inducing cytokine, and since Cox2 is an enzyme involved in the synthesis of prostaglandins corresponding to an inflammation-related protein, it is possible to confirm whether inflammation is inhibited by measuring the expression level of Cox2.
HaCaT cells were dispensed into a 24-well plate at a concentration of 3× 10^5 cells/well and cultured until the next day. The medium was replaced with serum-free medium, and after 4 hours, the cells were treated with TNFα and the peptide of the present invention and cultured again for another 24 hours. In order to induce inflammation, the cells were treated with TNFα at 20 nM, and treated with the peptide at 5 μM and 50 μM, respectively. […] In order to perform Western blotting, the amount of Cox2 protein was measured using an anti-Cox2 antibody (Cell Signaling Technology, USA). […]

TNFα = TNFα mRNA level by RT-PCR in LPS-induced mouse splenocytes; format: cell-based; details: LPS 2 μg/mL, peptide at 5 μM and 50 μM, 24 hours, compared to group not treated with the peptide
Description: Inflammation was induced in mouse splenocytes, and the expression levels of TNFα, and IL-6 genes, which is the inflammatory cytokines were confirmed. In order to induce inflammation, the cells were treated with LPS, an inflammation-inducing antigen, and since TNFα corresponds to a signaling protein associated with inflammation, and IL-6 corresponds to a cytokine that promotes inflammation, the degree of inflammation can be confirmed by measuring the expression levels of TNFα and IL-6 genes.
Mouse splenocytes were dispensed into a 24-well plate at a concentration of 1×10^7 cells/well and cultured until the next day. The medium was replaced with serum-free medium, and after 3 hours, the cells were treated with LPS and the peptide of the present invention and then cultured again for another 24 hours. In order to induce inflammation, the cells were treated with LPS at 2 μg/mL, and the peptide at […] and 50 μM, respectively. […] After quantifying the amount of isolated RNA, cDNA was synthesized using a cDNA synthesis kit (Intron, Korea), PCR was performed using a PCR premix (Intron, Korea) and primers for TNFα, and IL-6. […]

IL-17 [1] = experiment: IL-17 secretion by ELISA in TNFα-induced mouse splenocytes; format: cell-based; details: TNFα 20 nM, 24 hours
Description: Inflammation was induced by treating mouse splenocytes with the inflammatory cytokine TNFα, and the secretion amounts of the inflammatory cytokines IL-17, IL-1B, and IFNγ were confirmed. IL-17 corresponds to a pro-inflammatory cytokine, and the descriptions of IL-1β and IFNγ are the same as above.
Mouse splenocytes were dispensed into a 24-well plate at a concentration of 1×10^7 cells/well and cultured until the next day. The medium was replaced with serum-free medium, and after 4 hours, the cells were treated with TNFα and the peptide of the present invention and then cultured again for another 24 hours. In order to induce inflammation, the cells were treated with TNFα at 20 nM, and the peptide at 5 μM and 50 μM, respectively. The mouse splenocytes in the group in which inflammation was not induced due to untreatment with TNFα (NON); the negative control group in which the cells were treated with TNFα but not treated with the peptide (NC); and the group in which the cells were treated with TNFα along with the peptide of the present invention at the same concentration as above, respectively, were reacted as described above and the cell cultures were recovered. […]

IL-17 [2] = experiment: IL-17 secretion by ELISA in mouse splenocytes induced with LPS, TGFβ and IL-23; format: cell-based; details: LPS 2 μg/mL, TGFβ 20 ng/ml, IL-23 20 ng/mL, 24 hours
From the text: (§1) Inflammation was induced by treating mouse splenocytes with LPS, which is an inflammation-inducing antigen, and TGFβ and IL-23, which are inflammatory cytokines, and the secretion amounts of the inflammatory cytokines IL-17, IL-1β, and IFNγ were confirmed. The descriptions of IL-17, IL-1B, and IFNγ are the same as above.
(§2) Mouse splenocytes were dispensed into a 24-well plate at a concentration of 1×10^7 cells/well and cultured until the next day. The medium was replaced with serum-free medium, and after 4 hours, the cells were treated with LPS, TGFβ, and IL-23 and the peptide of the present invention and then cultured again for another 24 hours. In order to induce inflammation, the cells were treated with LPS at 2 μg/mL, TGFβ at 20 ng/ml, IL-23 at 20 ng/mL, and the peptide at 5 μM and 50 μM, respectively. The mouse splenocytes in the group in which inflammation was not induced due to untreatment with LPS, TGFβ, and IL-23 (NON); the negative control group in which the cells were treated with LPS, TGFβ, and IL-23 but not treated with the peptide (NC); and the group in which the cells were treated with LPS, TGFβ, and IL-23 along with the peptide of the present invention at the same concentration as above, respectively, were reacted as described above and the cell cultures were recovered. […]

IL-1β = IL-1β secretion by ELISA in mouse splenocytes induced with LPS, TGFβ and IL-23; format: cell-based; details: LPS 2 μg/mL, TGFβ 20 ng/ml, IL-23 20 ng/mL, 24 hours
From the text: as §1, §2

TWNS [peptide of the present invention]
expression level of Cox2 protein (Cox2): decreased | mRNA expression level of TNFα (TNFα): decreased | secretion amount of IL-17 (IL-17 [1]; peptide at 5 μM): slightly increased | secretion amount of IL-17 (IL-17 [1]; peptide at 50 μM): decreased | secretion amount of IL-17 (IL-17 [2]; peptide at 5 μM): slightly increased | secretion amount of IL-17 (IL-17 [2]; peptide at 50 μM): decreased | secretion amount of IL-1β (IL-1β; peptide at 5 μM): decreased | secretion amount of IL-1β (IL-1β; peptide at 50 μM): decreased
